Results published in ChEMBL document CHEMBL3991601, “The target landscape of clinical kinase drugs” (Science, 2017).
Activity calls are given as the source filed them.

Assays:
[1] = biological target: T1, Acyl-CoA dehydrogenase family member 11 (Homo sapiens, UniProt Q709F0)
T1 sequence (Q709F0 whole entry): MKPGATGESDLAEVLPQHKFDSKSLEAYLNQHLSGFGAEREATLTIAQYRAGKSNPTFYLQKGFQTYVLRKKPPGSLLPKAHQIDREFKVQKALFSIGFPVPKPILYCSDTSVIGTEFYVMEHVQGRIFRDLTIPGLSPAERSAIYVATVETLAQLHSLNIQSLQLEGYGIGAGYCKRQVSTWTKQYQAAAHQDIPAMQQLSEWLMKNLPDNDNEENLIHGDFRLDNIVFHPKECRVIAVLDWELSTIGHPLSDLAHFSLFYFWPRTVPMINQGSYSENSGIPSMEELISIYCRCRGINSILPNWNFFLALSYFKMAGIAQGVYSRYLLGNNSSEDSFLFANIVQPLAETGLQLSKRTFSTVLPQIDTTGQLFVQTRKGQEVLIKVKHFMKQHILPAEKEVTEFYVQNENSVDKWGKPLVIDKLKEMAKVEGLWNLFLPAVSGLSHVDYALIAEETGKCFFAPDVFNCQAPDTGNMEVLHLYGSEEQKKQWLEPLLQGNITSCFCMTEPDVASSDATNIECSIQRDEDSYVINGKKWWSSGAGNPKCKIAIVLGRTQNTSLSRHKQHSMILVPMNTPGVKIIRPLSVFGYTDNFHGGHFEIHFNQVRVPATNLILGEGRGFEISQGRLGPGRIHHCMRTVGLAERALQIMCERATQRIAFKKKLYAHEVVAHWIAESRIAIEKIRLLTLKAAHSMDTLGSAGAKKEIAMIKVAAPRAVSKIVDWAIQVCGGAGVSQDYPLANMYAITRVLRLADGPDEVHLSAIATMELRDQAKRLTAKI

Actin-related protein 2 = Actin-related protein 2 (Homo sapiens, UniProt P61160)
[2] = biological target: T2, Bone morphogenetic protein receptor type-2 (Homo sapiens, UniProt Q13873)
T2 sequence (Q13873 whole entry): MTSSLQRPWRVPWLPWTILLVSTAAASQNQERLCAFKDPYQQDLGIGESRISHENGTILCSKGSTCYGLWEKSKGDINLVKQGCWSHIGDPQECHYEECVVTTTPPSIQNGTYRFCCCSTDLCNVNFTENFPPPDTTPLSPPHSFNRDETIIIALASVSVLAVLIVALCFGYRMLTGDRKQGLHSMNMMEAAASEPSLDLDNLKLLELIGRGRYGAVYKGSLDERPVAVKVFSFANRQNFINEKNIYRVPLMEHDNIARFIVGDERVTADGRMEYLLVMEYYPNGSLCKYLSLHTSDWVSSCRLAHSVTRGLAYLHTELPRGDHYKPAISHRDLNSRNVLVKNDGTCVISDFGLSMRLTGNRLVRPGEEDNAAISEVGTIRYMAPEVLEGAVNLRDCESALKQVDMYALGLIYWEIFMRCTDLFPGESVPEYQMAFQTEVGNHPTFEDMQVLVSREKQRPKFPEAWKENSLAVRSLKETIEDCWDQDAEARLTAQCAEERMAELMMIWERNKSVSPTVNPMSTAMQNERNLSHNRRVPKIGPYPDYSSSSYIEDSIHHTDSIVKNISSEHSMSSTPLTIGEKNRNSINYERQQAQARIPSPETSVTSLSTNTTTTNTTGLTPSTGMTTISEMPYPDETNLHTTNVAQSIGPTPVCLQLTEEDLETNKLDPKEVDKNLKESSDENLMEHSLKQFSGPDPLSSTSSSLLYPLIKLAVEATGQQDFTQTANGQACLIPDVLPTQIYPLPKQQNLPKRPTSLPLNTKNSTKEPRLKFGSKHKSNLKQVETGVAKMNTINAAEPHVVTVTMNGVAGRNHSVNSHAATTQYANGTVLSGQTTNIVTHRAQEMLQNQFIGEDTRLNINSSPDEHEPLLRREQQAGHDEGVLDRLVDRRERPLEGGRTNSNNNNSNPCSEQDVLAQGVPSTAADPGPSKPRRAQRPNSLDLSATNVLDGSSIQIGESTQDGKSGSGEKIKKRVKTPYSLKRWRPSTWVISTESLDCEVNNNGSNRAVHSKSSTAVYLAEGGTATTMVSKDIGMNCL

[3] = biological target: Casein kinase I isoform gamma-1 (Homo sapiens, UniProt Q9HCP0)
[4] = biological target: Serine/threonine-protein kinase/endoribonuclease IRE2 (Homo sapiens, UniProt Q76MJ5)
[5] = biological target: T3, Ras-related protein Rab-27A (Homo sapiens, UniProt P51159)
T3 sequence (P51159 whole entry): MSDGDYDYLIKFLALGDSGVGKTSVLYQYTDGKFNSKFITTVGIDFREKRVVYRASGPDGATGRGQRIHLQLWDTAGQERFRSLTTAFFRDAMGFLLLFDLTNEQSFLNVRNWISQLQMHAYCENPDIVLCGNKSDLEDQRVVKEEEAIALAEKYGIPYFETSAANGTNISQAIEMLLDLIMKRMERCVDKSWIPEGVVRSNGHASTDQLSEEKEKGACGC

[6] = biological target: Ras-related protein Rab-6A (Homo sapiens, UniProt P20340)
[7] = biological target: GTP-binding nuclear protein Ran (Homo sapiens, UniProt P62826)
[8] = biological target: Serine/threonine-protein kinase 26 (Homo sapiens, UniProt Q9P289)
[9] = biological target: T4, Tyrosine-protein kinase Tec (Homo sapiens, UniProt P42680)
T4 sequence (P42680 whole entry): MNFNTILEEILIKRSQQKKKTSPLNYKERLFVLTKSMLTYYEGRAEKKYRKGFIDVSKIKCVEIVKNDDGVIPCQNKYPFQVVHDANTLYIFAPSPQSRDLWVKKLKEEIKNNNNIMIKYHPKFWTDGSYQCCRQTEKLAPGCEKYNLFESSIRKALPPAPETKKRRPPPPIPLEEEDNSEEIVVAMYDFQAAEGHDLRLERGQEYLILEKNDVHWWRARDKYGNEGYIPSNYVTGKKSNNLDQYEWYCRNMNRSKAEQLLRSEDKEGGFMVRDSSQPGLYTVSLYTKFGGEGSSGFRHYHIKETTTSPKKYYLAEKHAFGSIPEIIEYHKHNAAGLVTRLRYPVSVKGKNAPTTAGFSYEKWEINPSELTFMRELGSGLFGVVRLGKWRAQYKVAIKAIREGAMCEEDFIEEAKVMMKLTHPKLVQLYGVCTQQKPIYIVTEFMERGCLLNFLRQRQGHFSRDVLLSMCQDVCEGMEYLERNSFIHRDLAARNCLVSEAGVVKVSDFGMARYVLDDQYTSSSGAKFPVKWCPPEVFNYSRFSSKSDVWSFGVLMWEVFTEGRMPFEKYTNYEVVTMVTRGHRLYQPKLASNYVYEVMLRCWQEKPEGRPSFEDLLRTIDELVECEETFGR
Also: in the data inactive means no Kd found up to 30 µM.

Ras-related protein Rab-6A, sequence (P20340 whole entry): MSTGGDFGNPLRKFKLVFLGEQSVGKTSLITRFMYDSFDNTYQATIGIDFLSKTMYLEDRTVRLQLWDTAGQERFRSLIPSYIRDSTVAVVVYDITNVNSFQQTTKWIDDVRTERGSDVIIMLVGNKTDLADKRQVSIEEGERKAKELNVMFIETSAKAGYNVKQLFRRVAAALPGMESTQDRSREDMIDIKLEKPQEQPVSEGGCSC
Serine/threonine-protein kinase 26, sequence (Q9P289 whole entry): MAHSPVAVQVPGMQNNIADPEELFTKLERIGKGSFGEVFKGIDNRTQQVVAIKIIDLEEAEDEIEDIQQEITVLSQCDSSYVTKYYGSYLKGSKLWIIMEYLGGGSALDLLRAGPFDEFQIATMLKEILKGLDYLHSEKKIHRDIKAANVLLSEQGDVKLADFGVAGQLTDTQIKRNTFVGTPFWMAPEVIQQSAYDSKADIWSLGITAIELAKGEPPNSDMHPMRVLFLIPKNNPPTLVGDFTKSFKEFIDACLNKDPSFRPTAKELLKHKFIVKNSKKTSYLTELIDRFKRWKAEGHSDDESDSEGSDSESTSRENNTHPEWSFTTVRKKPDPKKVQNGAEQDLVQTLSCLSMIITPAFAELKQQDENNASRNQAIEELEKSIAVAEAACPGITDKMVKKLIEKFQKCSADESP
Casein kinase I isoform gamma-1, sequence (Q9HCP0 whole entry, canonical isoform): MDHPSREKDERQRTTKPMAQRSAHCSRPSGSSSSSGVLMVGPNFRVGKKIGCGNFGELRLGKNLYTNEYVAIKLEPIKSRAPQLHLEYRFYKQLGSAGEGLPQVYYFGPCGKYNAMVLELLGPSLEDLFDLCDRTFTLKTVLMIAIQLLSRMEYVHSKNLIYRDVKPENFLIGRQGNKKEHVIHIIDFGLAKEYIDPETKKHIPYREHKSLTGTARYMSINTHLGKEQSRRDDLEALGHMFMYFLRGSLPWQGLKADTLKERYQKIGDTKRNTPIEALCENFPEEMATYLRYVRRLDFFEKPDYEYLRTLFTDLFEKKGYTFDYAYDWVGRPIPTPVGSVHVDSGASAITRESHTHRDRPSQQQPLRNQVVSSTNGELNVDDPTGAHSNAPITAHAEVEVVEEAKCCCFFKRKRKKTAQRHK
Serine/threonine-protein kinase/endoribonuclease IRE2, sequence (Q76MJ5 whole entry): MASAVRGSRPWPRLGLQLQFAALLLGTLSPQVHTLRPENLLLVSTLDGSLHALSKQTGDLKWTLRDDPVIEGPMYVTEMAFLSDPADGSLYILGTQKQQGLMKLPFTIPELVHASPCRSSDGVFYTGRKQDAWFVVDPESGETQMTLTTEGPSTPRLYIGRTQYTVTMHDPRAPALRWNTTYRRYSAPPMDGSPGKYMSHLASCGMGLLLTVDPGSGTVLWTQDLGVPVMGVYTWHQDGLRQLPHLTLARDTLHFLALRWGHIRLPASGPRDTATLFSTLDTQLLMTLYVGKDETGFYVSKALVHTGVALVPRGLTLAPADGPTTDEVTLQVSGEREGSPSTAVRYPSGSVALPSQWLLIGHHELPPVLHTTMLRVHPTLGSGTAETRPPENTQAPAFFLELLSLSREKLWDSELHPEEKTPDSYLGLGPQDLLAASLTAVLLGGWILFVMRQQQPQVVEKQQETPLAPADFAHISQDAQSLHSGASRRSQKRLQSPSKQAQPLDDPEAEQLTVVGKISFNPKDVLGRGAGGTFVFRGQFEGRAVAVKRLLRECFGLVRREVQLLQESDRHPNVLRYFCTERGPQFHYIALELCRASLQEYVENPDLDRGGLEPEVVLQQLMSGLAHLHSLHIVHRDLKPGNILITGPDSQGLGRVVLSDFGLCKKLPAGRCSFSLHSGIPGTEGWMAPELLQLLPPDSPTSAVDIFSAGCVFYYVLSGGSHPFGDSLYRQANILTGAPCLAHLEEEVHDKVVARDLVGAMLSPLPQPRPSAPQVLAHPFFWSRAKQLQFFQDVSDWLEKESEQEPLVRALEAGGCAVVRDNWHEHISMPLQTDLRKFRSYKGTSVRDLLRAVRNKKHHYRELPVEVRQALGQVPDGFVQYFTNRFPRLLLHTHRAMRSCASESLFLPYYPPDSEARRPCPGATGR

Structure (SMILES) | Kd [1] | Kd (Actin-related protein 2) | Kd [2] | Kd [3] | Kd [4] | Kd [5] | Kd [6] | Kd [7] | Kd [8] | Kd [9]
CN1CCC(CNc2ccc3ncc(-c4cccc(OC(F)(F)F)c4)n3n2)CC1 [SGI-1776] | > 30 µM (inactive) | > 30 µM (inactive) | > 30 µM (inactive) | > 30 µM (inactive) | > 30 µM (inactive) | > 30 µM (inactive) | > 30 µM (inactive) | > 30 µM (inactive) | > 30 µM (inactive) | > 30 µM (inactive)
CC(C)Nc1cc(-c2c[nH]c(C(=O)N[C@H](CO)c3cccc(Cl)c3)c2)c(Cl)cn1 [ULIXERTINIB] | > 30 µM (inactive) | > 30 µM (inactive) | > 30 µM (inactive) | > 30 µM (inactive) | > 30 µM (inactive) | > 30 µM (inactive) | > 30 µM (inactive) | > 30 µM (inactive) | > 30 µM (inactive) | > 30 µM (inactive)
CC[C@@H]1C(=O)N(C)c2cnc(Nc3ccc(C(=O)N[C@H]4CC[C@H](N5CCN(CC6CC6)CC5)CC4)cc3OC)nc2N1C(C)C [VOLASERTIB] | > 30 µM (inactive) | > 30 µM (inactive) | > 30 µM (inactive) | > 30 µM (inactive) | > 30 µM (inactive) | > 30 µM (inactive) | > 30 µM (inactive) | > 30 µM (inactive) | > 30 µM (inactive) | > 30 µM (inactive)
Cc1ccc(S(=O)(=O)Nc2nc3ccccc3nc2Nc2ccc3nsnc3c2)cc1 | > 30 µM (inactive) | > 30 µM (inactive) | > 30 µM (inactive) | > 30 µM (inactive) | > 30 µM (inactive) | > 30 µM (inactive) | > 30 µM (inactive) | > 30 µM (inactive) | > 30 µM (inactive) | > 30 µM (inactive)
COC(=O)N[C@@H](C)CNc1nccc(-c2cn(C(C)C)nc2-c2cc(Cl)cc(NS(C)(=O)=O)c2F)n1 [ENCORAFENIB] | > 30 µM (inactive) | > 30 µM (inactive) | > 30 µM (inactive) | > 30 µM (inactive) | > 30 µM (inactive) | > 30 µM (inactive) | > 30 µM (inactive) | > 30 µM (inactive) | > 30 µM (inactive) | > 30 µM (inactive)
COCCNCc1ccc(-c2cc3nccc(Oc4ccc(NC(=S)NC(=O)Cc5ccc(F)cc5)cc4F)c3s2)nc1 [GLESATINIB] | > 30 µM (inactive) | > 30 µM (inactive) | > 30 µM (inactive) | > 30 µM (inactive) | > 30 µM (inactive) | > 30 µM (inactive) | > 30 µM (inactive) | > 30 µM (inactive) | > 30 µM (inactive) | > 30 µM (inactive)
CCS(=O)(=O)N1CC(CC#N)(n2cc(-c3ncnc4[nH]ccc34)cn2)C1 [BARICITINIB] | > 30 µM (inactive) | > 30 µM (inactive) | > 30 µM (inactive) | 1.75 µM | > 30 µM (inactive) | > 30 µM (inactive) | > 30 µM (inactive) | > 30 µM (inactive) | > 30 µM (inactive) | > 30 µM (inactive)
CO[C@H]1C[C@@H]2CC[C@@H](C)[C@@](O)(O2)C(=O)C(=O)N2CCCC[C@H]2C(=O)O[C@H]([C@H](C)C[C@@H]2CC[C@@H](OCCO)[C@H](OC)C2)CC(=O)[C@H](C)/C=C(\C)[C@@H](O)[C@@H](OC)C(=O)[C@H](C)C[C@H](C)/C=C/C=C/C=C/1C [EVEROLIMUS] | > 30 µM (inactive) | > 30 µM (inactive) | > 30 µM (inactive) | > 30 µM (inactive) | > 30 µM (inactive) | > 30 µM (inactive) | > 30 µM (inactive) | > 30 µM (inactive) | > 30 µM (inactive) | > 30 µM (inactive)
CCN1CCN(Cc2ccc(-c3cc4c(N[C@H](C)c5ccccc5)ncnc4[nH]3)cc2)CC1 [AEE-788] | > 30 µM (inactive) | > 30 µM (inactive) | > 30 µM (inactive) | > 30 µM (inactive) | > 30 µM (inactive) | > 30 µM (inactive) | > 30 µM (inactive) | > 30 µM (inactive) | > 30 µM (inactive) | > 30 µM (inactive)
CC(=O)Nc1cccc(-n2c(=O)n(C3CC3)c(=O)c3c(Nc4ccc(I)cc4F)n(C)c(=O)c(C)c32)c1 [TRAMETINIB] | > 30 µM (inactive) | > 30 µM (inactive) | > 30 µM (inactive) | > 30 µM (inactive) | > 30 µM (inactive) | > 30 µM (inactive) | > 30 µM (inactive) | > 30 µM (inactive) | > 30 µM (inactive) | > 30 µM (inactive)
O=C(O)[C@]1(Cc2cccc(Nc3nccs3)n2)CC[C@@H](Oc2cccc(Cl)c2F)CC1 [MK-5108] | > 30 µM (inactive) | > 30 µM (inactive) | > 30 µM (inactive) | > 30 µM (inactive) | > 30 µM (inactive) | > 30 µM (inactive) | > 30 µM (inactive) | > 30 µM (inactive) | > 30 µM (inactive) | 0.707 µM (active)
N[C@@H]1CCCN(c2c(/C=C3\SC(=O)NC3=O)cccc2-c2ccccc2)C1 | > 30 µM (inactive) | > 30 µM (inactive) | > 30 µM (inactive) | > 30 µM (inactive) | > 30 µM (inactive) | > 30 µM (inactive) | > 30 µM (inactive) | > 30 µM (inactive) | > 30 µM (inactive) | > 30 µM (inactive)
C[C@@H]1CN(Cc2ccc(F)cc2)[C@@H](C)CN1C(=O)c1cc2c(C(=O)C(=O)N(C)C)cn(C)c2cc1Cl [TALMAPIMOD] | > 30 µM (inactive) | 0.004 µM | > 30 µM (inactive) | > 30 µM (inactive) | > 30 µM (inactive) | > 30 µM (inactive) | > 30 µM (inactive) | > 30 µM (inactive) | > 30 µM (inactive) | > 30 µM (inactive)
